Results from the NIST ThermoML archive (doi:10.1016/j.jct.2016.10.033).
± gives the expanded uncertainty stated by the source.

Assays:
[1] = xn = mol fraction of the nth substance listed; conditions: 103 kPa, Liquid, Vibrating tube method, x1 = 1
[2] = refractive index (Na D-line) (dimensionless); xn = mol fraction of the nth substance listed; conditions: 103 kPa, Liquid, Standard Abbe refractometry, x1 = 1
[3] = refractive index (Na D-line) (dimensionless); conditions: 103 kPa, Liquid, Standard Abbe refractometry
[4] = 103 kPa, Liquid, Vibrating tube method

| SMILES | mass density ([1]; 298.15 K) [kg/m3] | mass density ([1]; 303.15 K) [kg/m3] | mass density ([1]; 308.15 K) [kg/m3] | mass density ([1]; 313.15 K) [kg/m3] | mass density ([1]; 318.15 K) [kg/m3] | refractive index ([2]; 298.15 K) | refractive index ([2]; 303.15 K) | refractive index ([2]; 308.15 K) | refractive index ([2]; 313.15 K) | refractive index ([2]; 318.15 K) | refractive index ([3]; 298.15 K) | refractive index ([3]; 303.15 K) | refractive index ([3]; 308.15 K) | refractive index ([3]; 313.15 K) | refractive index ([3]; 318.15 K) | mass density ([4]; 298.15 K) [kg/m3] | mass density ([4]; 303.15 K) [kg/m3] | mass density ([4]; 308.15 K) [kg/m3] | mass density ([4]; 313.15 K) [kg/m3] | mass density ([4]; 318.15 K) [kg/m3] | other results |
| --- | --- | --- | --- | --- | --- | --- | --- | --- | --- | --- | --- | --- | --- | --- | --- | --- | --- | --- | --- | --- | --- |
| CO[Si](C)(OC)c1ccccc1 [dimethoxymethylphenylsilane] + CCO[Si](C)(C)OCC | 1000.78 ± 0.41 | 996.13 ± 0.41 | 991.48 ± 0.41 | 986.81 ± 0.41 | 982.15 ± 0.41 | 1.47763 ± 0.004 | 1.47528 ± 0.004 | 1.47293 ± 0.004 | 1.47061 ± 0.004 | 1.46825 ± 0.004 | – | – | – | – | – | – | – | – | – | – | – |
| CO[Si](C)(OC)c1ccccc1 [dimethoxymethylphenylsilane] + CO[Si](C)(C)OC | 1000.78 ± 0.41 | 996.13 ± 0.41 | 991.48 ± 0.41 | 986.81 ± 0.41 | 982.15 ± 0.41 | 1.47763 ± 0.004 | 1.47528 ± 0.004 | 1.47293 ± 0.004 | 1.47061 ± 0.004 | 1.46825 ± 0.004 | – | – | – | – | – | – | – | – | – | – | – |
| C=C[Si](OC)(OC)OC [trimethoxy(vinyl)silane] | – | – | – | – | – | – | – | – | – | – | 1.39022 ± 0.004 | 1.38775 ± 0.004 | 1.38535 ± 0.004 | 1.3829 ± 0.004 | 1.38046 ± 0.004 | 965.69 ± 0.41 | 960.02 ± 0.41 | 954.26 ± 0.41 | 948.47 ± 0.41 | 942.63 ± 0.41 | – |
| C=C[Si](C)(OCC)OCC [methylvinyldiethoxysilane] | – | – | – | – | – | – | – | – | – | – | 1.39751 ± 0.004 | 1.39501 ± 0.004 | 1.39249 ± 0.004 | 1.38997 ± 0.004 | 1.38742 ± 0.004 | 856.25 ± 0.41 | 851.09 ± 0.41 | 845.89 ± 0.41 | 840.71 ± 0.41 | 835.44 ± 0.41 | refractive index ([3]; 293.15 K): 1.40033 ± 0.004; mass density ([4]; 293.15 K): 862.21 ± 0.41 kg/m3 |
| CCO[Si](C)(C)OCC [dimethyldiethoxysilane] | – | – | – | – | – | – | – | – | – | – | 1.38045 ± 0.004 | 1.37791 ± 0.004 | 1.37532 ± 0.004 | 1.37275 ± 0.004 | 1.37015 ± 0.004 | 835.43 ± 0.41 | 830.05 ± 0.42 | 824.66 ± 0.42 | 819.23 ± 0.42 | 813.79 ± 0.42 | refractive index ([3]; 293.15 K): 1.38452 ± 0.004; mass density ([4]; 293.15 K): 840.11 ± 0.41 kg/m3 |
| CO[Si](C)(OC)c1ccccc1 [dimethoxymethylphenylsilane] + C=C[Si](C)(OCC)OCC | 1000.78 ± 0.41 | 996.13 ± 0.41 | 991.48 ± 0.41 | 986.81 ± 0.41 | 982.15 ± 0.41 | 1.47763 ± 0.004 | 1.47528 ± 0.004 | 1.47293 ± 0.004 | 1.47061 ± 0.004 | 1.46825 ± 0.004 | – | – | – | – | – | – | – | – | – | – | – |
| CO[Si](C)(C)OC [dimethoxydimethylsilane] | – | – | – | – | – | – | – | – | – | – | 1.36816 ± 0.004 | 1.36559 ± 0.004 | 1.36297 ± 0.004 | 1.36035 ± 0.004 | 1.35771 ± 0.004 | 857.9 ± 0.41 | 852.05 ± 0.41 | 846.16 ± 0.41 | 840.22 ± 0.42 | 834.24 ± 0.42 | – |
| CO[Si](C)(OC)c1ccccc1 [dimethoxymethylphenylsilane] + C=C[Si](OC)(OC)OC | 1000.78 ± 0.41 | 996.13 ± 0.41 | 991.48 ± 0.41 | 986.81 ± 0.41 | 982.15 ± 0.41 | 1.47763 ± 0.004 | 1.47528 ± 0.004 | 1.47293 ± 0.004 | 1.47061 ± 0.004 | 1.46825 ± 0.004 | – | – | – | – | – | – | – | – | – | – | – |
| CO[Si](C)(OC)c1ccccc1 [dimethoxymethylphenylsilane] | – | – | – | – | – | – | – | – | – | – | 1.47763 ± 0.004 | 1.47528 ± 0.004 | 1.47293 ± 0.004 | 1.47061 ± 0.004 | 1.46825 ± 0.004 | 1000.78 ± 0.41 | 996.13 ± 0.41 | 991.48 ± 0.41 | 986.81 ± 0.41 | 982.15 ± 0.41 | – |
